The values that follow come from patent publication US20250163057A1, “DCN-1 MODULATING COMPOUNDS AND METHODS OF USE THEREOF” (Cellarity, Inc., priority 2023, published 2025).

Assay [1] has as its target DCN2 (DCUND2) protein PONY domain (Homo sapiens (Human), UniProt Q6PH85). In words: Measurement of Kinact/KI in the DCN2 TR-FRET Assay. In kind it is binding. To be noted: for kinact/KI: read-out: Kinact/KI (converted); for Ki / kinact: time-dependent IC50 over 24 hrs; for kinact: read-out: Kinact (converted). How it is done: A TR-FRET Assay was performed to evaluate the ability of the compounds to bind DCN-2.
The time resolved—Forster's resonance energy transfer (TR-FRET) assay was designed following the protocol established in (Scott et al., Nat Chem Biol. 2017 August; 13(8): 850-857). A recombinant form of the DCN2 (DCUND2) protein PONY domain was produced using an E. coli expression system at Viva Biotech China. The DCN2 protein was biotinylated (EZ sulfo-NHS-LC-biotin; Thermofisher) for labeling with 2.5 nM streptavidin terbium (Tb) cryptate in the reaction. The probe was changed to a non-covalent DCN1 inhibitor labeled with carboxyfluorescein (FAM; Zhou et al, Nat Commun. 2017; 8: 1150). Buffer conditions were modified to enhance protein stability by replacing TritonX with 0.05% Tween20 and increasing NaCl to 200 mM. The compounds were screened against 0.31 nM DCN1 and 40 nM FAM-labeled probe in a 40 ul reaction volume. The TR-FRET ratio between Tb-DCN1 and the FAM-labeled probe was measured in a 384-well opti-plate (Perkin Elmer) using a plate reader (BMG) at after treatment with compound (final DMSO concentration of 0.1%). The ratio was normalized to the high (DCN1 and FAM-probe) and low (DCN1 and no probe) controls for a readout of % activity (=100*(x−low)/(high−low)).
The Kinact and KI measurements were taken to allow for continuous reads over 24 hrs. Plates were read every 5 min up to 1 hr, every 15 min up to 5 hr, and every hour up to […]. Kinact and KI were calculated based on the following equations (Krippendorff B F, et al. Mechanism-based inhibition: deriving K(I) and k(inact) directly from time-dependent IC(50) values. J BiomolScreen. 2009; Mons E et al. A Comprehensive Guide for Assessing Covalent Inhibition in Enzymatic Assays Illustrated with Kinetic Simulations. CurrProtoc. 2022) where the KM of the probe against DCN2 is 21.62 nM. The Kinact and KI values could be estimated from the tight curves of the IC50 values over time.
For orientation: Time-resolved FRET reads energy transfer from a long-lived donor to a nearby acceptor.

Assay [2] has as its system fetal hemoglobin protein. Kind of assay: HbF HPLC Cell Culture Assay. In kind it is cell-based. Particulars: for EC50: 336 h, HbF induction, Day 14 of culture; for Hemoglobin HPLC Ymax obs (%): relative to a control compound. As for the experimental part: A Cell Culture Assay was performed to evaluate the ability of compounds to induce fetal hemoglobin in a cell culture. The amount fetal hemoglobin protein induced was measured by HPLC.
Cell culture began on Day −4 (thaw day). Thaw buffer was prepared by sterile filtering 6 mL of Human Serum Albumin and 144 mL of PBS to make sterile 1% I/PBS. Cells were removed from liquid nitrogen storage and mostly thawed in a 37° C. water bath. Once the ice in the cryovials was melted, cells were transferred quickly into a 50 mL conical tube. Cryovial was rinsed once with thaw buffer and buffer was transferred over to the conical tube as well. Next, doubling volumes of thaw buffer was added to the conical and gently swirled for ˜30 seconds to one minute (for example: 2 mL was added and swirled, then 4 mL, then 8 mL, and so on) until the volume in the conical is 32 mL. Cells and buffer were centrifuged at 300G for 8 minutes, and the supernatant was aspirated. Another 32 mL of thaw buffer was added slowly, swirling the tube. The tube was again centrifuged at 300G for 8 minutes and the supernatant was aspirated. Cells were counted by resuspending in 1 mL of expansion media and counting with AOPI to determine the concentration of cells/mL.
On day 2, Passage & Treatment Day, each cell culture well was counted. Next fresh CD34 Expansion Media was made which contained StemSpan SFEM, CC100 and TPO all from StemCell technologies. Appropriate volume of cells was collected, centrifuged at 300 g and resuspended in fresh media. Cells were plated in treatment format at a density of 200,000 cells/ml, 25,000 cells/well. Finally, they were treated with test compounds as well as positive and negative controls.
On Days 0, 3 & 5 the same process was carried out. First, each cell culture well was counted. Next Phase 1 Erythroid Differentiation Media was freshly made, which contained StemSpan SFEM, 2.5 U/ml EPO, 0.5 mg/ml Holo-TF, 1× Glutamax, 5 μl/ml chemically defined lipid mixture, 10 ng/ml insulin, 50 ng/ml SCF, 10 ng/ml IL-3. Appropriate volume of cells was collected, centrifuged at 300 g and resuspended in fresh media. Cells should now be in fresh wells at a density of 100,000 cells/ml. 60,000 cells, 60,000 cells and 100,000 cells for days 0, 3, 5 respectively. Finally, fresh compound was added to each well at each timepoint (Days 0, 3 & 5).
On Day 7 media and cell culture density changes. Each cell culture well was counted. Next, Phase 2 Erythroid Differentiation Media was freshly made, which contains StemSpan SFEM, 2.5 U/ml EPO, 0.5 mg/ml Holo-TF, 1× Glutamax, 5 μl/ml chemically defined lipid mixture, 10 ng/ml insulin, 50 ng/ml SCF. Appropriate volume of cells was collected, centrifuged at 300 g and resuspended in fresh media. Cells were plated in fresh wells at a density of 500,000 cells/ml, 300,000 cells/well. Finally, fresh compound was added to each well at Day 7 timepoint.
On Day 10 media formulation is once again changed. Each cell culture well was counted. Fresh Phase 3 Erythroid Differentiation Media was made which contains StemSpan SFEM, 2.5 U/ml EPO, 0.5 mg/ml Holo-TF, 1× Glutamax, 5 μl/ml chemically defined lipid mixture, 10 ng/ml insulin. Appropriate volume of cells was collected, centrifuged at 300 g and resuspended in fresh media. Cells were plated in fresh wells at a density of 500,000 cells/ml, 500,000 cells/well. Finally, fresh compound was added to each well at Day 10 timepoint.
On Day 12 the cell density is once again changed. Each cell culture well was counted. Fresh Phase 3 Erythroid Differentiation Media was made. Appropriate volume of cells was collected, centrifuged at 300 g and resuspended in fresh media. Cells were plated in fresh wells at a density of 1,000,000 cells/ml, 1,000,000 cells/well. Finally fresh compound was added to each well.
Day 14 (18th day of experiment) refers to the terminal day of culture. Each cell culture well was counted. Next between 150K and 650K cells were placed in a uniquely labeled 1.5 ml standard tube. […]

Chain of DCN2 (DCUND2) protein PONY domain (Q6PH85 60-248): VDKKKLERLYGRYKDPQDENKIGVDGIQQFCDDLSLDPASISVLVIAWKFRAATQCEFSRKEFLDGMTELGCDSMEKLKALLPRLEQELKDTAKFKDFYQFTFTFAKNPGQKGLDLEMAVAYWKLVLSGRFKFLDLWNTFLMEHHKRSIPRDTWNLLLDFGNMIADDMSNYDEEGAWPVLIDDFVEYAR

Consider `CCN1C(=O)[C@@H](NC(=O)c2cccc(C(F)(F)F)c2)[C@@H](c2ccc(F)cc2)c2c([C@@H](C)NC#N)nn(-c3ccccc3)c21` [Compound I-73, N-((4S,5S)-3-((R)-1-cyanamidoethyl)-7-ethyl-4-(4-fluorophenyl)-6-oxo-1-phenyl-4,5,6,7-tetrahydro-1H-pyrazolo[3,4-b]pyridin-5-yl)-3-(trifluoromethyl)benzamide], for which, in assay [1], the kinact/KI was 83300 M⁻¹ s⁻¹, the Ki amounted to 46.4 nM and the maximal inactivation rate constant (kinact) is 0.00384 s⁻¹. In addition, in assay [2], the EC50 was more than 200 nM; the “Hemoglobin HPLC Ymax obs (%)” value was “++ (Hemoglobin HPLC Ymax greater than 65.0 and less than or equal to 100.0)”.

As to `CCN1C(=O)[C@@H](NC(=O)c2cccc(C(F)(F)F)c2)[C@@H](C2CC2)c2c(C(=O)N3[C@H](C#N)C[C@H]4C[C@H]43)nn(C3CCOCC3)c21` [Compound I-256, N-((4S,5S)-3-((1R,3S,5R)-3-cyano-2-azabicyclo[3.1.0]hexane-2-carbonyl)-4-cyclopropyl-7-ethyl-6-oxo-1-(tetrahydro-2H-pyran-4-yl)-4,5,6,7-tetrahydro-1H-pyrazolo[3,4-b]pyridin-5-yl)-3-(trifluoromethyl)benzamide], in assay [1], the kinact/KI was 78300 M⁻¹ s⁻¹, the Ki was found to be 99.4 nM and the kinact was 0.00783 s⁻¹. In assay [2], the 50% effective concentration (EC50) fell in the range of 50 to 200 nM; the “Hemoglobin HPLC Ymax obs (%)” value is “++ (Hemoglobin HPLC Ymax greater than 65.0 and less than or equal to 100.0)”.

Turning to `CCN1C(=O)[C@@H](NC(=O)c2cccc(C(F)(F)F)c2)[C@@H](c2ccc(F)cc2)c2c(C(=O)N3CCC[C@H]3C#N)nn(C3CCOCC3)c21` [Compound I-350], in assay [1], the kinact/KI was 45000 M⁻¹ s⁻¹, the Ki came to 92.9 nM and the kinact is 0.00417 s⁻¹. In assay [2], the EC50 was not above 50 nM; the “Hemoglobin HPLC Ymax obs (%)” value is “++ (Hemoglobin HPLC Ymax greater than 65.0 and less than or equal to 100.0)”.

As for `CCN1C(=O)[C@@H](NC(=O)c2cccc(C(F)(F)F)c2)[C@@H](c2ccc(F)cc2)c2c(C(=O)N3CCNC[C@H]3C#N)nn(C3CCOCC3)c21` [Compound I-363, N-((4S,5S)-3-((S)-2-cyanopiperazine-1-carbonyl)-7-ethyl-4-(4-fluorophenyl)-6-oxo-1-(tetrahydro-2H-pyran-4-yl)-4,5,6,7-tetrahydro-1H-pyrazolo[3,4-b]pyridin-5-yl)-3-(trifluoromethyl)benzamide], in assay [1], the kinact/KI is 263000 M⁻¹ s⁻¹, the Ki came to 17.4 nM and the kinact was 0.00459 s⁻¹.

Regarding `CCN1C(=O)[C@@H](NC(=O)c2cccc(C(F)(F)F)c2)[C@@H](c2ccc(F)cc2)c2c(C(=O)N(C)[C@@H](C#N)CCN(C)C)nn(C3CCOCC3)c21` [Compound I-369], in assay [1], the kinact/KI was 11700 M⁻¹ s⁻¹, the Ki is 2 nM and the inactivation rate constant (kinact) is 2.17e-05 s⁻¹.

On to `CCN1C(=O)[C@@H](NC(=O)c2cccc(C(F)(F)F)c2)[C@@H](c2ccc(F)cc2)c2c(C(=O)N(C)[C@H](C#N)CCN(C)C)nn(C3CCOCC3)c21` [Compound I-370], for which, in assay [1], the kinact/KI is 107000 M⁻¹ s⁻¹, the Ki is 0.488 nM and the kinact was 5.17e-05 s⁻¹.

Turning to `CCN1C(=O)[C@@H](NC(=O)c2cccc(C(F)(F)F)c2)[C@@H](C2CC2)c2c(C(=O)N3C[C@H](F)C[C@H]3C#N)nn(C3CCOCC3)c21` [Compound I-372], in assay [1], the kinact/KI was 13300 M⁻¹ s⁻¹, the Ki amounted to 229 nM and the kinact is 0.00313 s⁻¹. Moreover, in assay [2], the concentration for a half-maximal effect (EC50) is 50 to 200 nM; the “Hemoglobin HPLC Ymax obs (%)” value was “++ (Hemoglobin HPLC Ymax greater than 65.0 and less than or equal to 100.0)”.

On to `CCN1C(=O)[C@@H](NC(=O)c2cccc(C(F)(F)F)c2)[C@@H](C2CC2)c2c(C(=O)N3C[C@H](OC)C[C@H]3C#N)nn(C3CCOCC3)c21` [Compound I-377], for which, in assay [1], the kinact/KI was 21700 M⁻¹ s⁻¹, the Ki was 161 nM and the kinact is 0.00354 s⁻¹. In assay [2], the EC50 lay within 50 to 200 nM; the “Hemoglobin HPLC Ymax obs (%)” value is “++ (Hemoglobin HPLC Ymax greater than 65.0 and less than or equal to 100.0)”.

Turning to `CCN1C(=O)[C@@H](NC(=O)c2cccc(C(F)(F)F)c2)[C@@H](C2CC2)c2c(C(=O)N3CCNC[C@H]3C#N)nn(-c3ccccc3)c21` [Compound I-383], in assay [1], the kinact/KI is 48300 M⁻¹ s⁻¹, the Ki was found to be 95.8 nM and the maximal inactivation rate constant (kinact) is 0.00465 s⁻¹.

Regarding `CCN1C(=O)[C@@H](NC(=O)c2cccc(C(F)(F)F)c2)[C@@H](C)c2c(C(=O)N3[C@H](C#N)C[C@H]4C[C@H]43)nn(C3CCOCC3)c21` [Compound I-387], in assay [1], the kinact/KI is 46700 M⁻¹ s⁻¹, the Ki came to 157 nM and the kinact is 0.00727 s⁻¹.

With `CCc1cccc(C(=O)N[C@@H]2C(=O)N(CC)c3c(c(C(=O)N4[C@H](C#N)C[C@H]5C[C@H]54)nn3C3CCOCC3)[C@@H]2C2CC2)c1` [Compound I-552, N-((4S,5S)-3-((1R,3S,5R)-3-cyano-2-azabicyclo[3.1.0]hexane-2-carbonyl)-4-cyclopropyl-7-ethyl-6-oxo-1-(tetrahydro-2H-pyran-4-yl)-4,5,6,7-tetrahydro-1H-pyrazolo[3,4-b]pyridin-5-yl)-3-ethylbenzamide], in assay [1], the kinact/KI was 333000 M⁻¹ s⁻¹, the Ki was determined as 17 nM and the maximal inactivation rate constant (kinact) was 0.00566 s⁻¹.

As a reminder, the kinact is the rate constant of inactivation at saturating inhibitor. In general, EC50 refers to the concentration needed to bring the measured effect to its halfway point. A lower EC50 goes with greater potency.
